{"source": "paper PMC7815647", "about": "(Biochemistry and Biophysics Reports, 2021)", "test_system": "Nit11764", "details": "40 mM Na-K phosphate pH 7.0"}
{"compound": "N#C/C=C/c1ccccc1", "note": "[Cinnamonitrile]", "values": [{"measurement": "Km", "value": "1.27 ± 0.4", "unit": "mM"}]}
{"compound": "N#C/C=C/C#N", "note": "[Fumaronitrile]", "values": [{"measurement": "Km", "value": "8.57 ± 0.8", "unit": "mM"}]}
